Experimental data taken from the Kinase Knowledgebase extract (Sharma et al. 2016).

Columns and labels:
Assay in all cases: Enzyme Assay
CDK2 (human) = CDK2 (human) (UniProt P24941)
MAPK14 (human) = MAPK14 (human) (UniProt Q16539)
PIK3CG (human) = PIK3CG (human) (UniProt P48736)
PIK3CA (human) = PIK3CA (human) (UniProt P42336)
PIK3CA (human), sequence (P42336 whole entry, looked up): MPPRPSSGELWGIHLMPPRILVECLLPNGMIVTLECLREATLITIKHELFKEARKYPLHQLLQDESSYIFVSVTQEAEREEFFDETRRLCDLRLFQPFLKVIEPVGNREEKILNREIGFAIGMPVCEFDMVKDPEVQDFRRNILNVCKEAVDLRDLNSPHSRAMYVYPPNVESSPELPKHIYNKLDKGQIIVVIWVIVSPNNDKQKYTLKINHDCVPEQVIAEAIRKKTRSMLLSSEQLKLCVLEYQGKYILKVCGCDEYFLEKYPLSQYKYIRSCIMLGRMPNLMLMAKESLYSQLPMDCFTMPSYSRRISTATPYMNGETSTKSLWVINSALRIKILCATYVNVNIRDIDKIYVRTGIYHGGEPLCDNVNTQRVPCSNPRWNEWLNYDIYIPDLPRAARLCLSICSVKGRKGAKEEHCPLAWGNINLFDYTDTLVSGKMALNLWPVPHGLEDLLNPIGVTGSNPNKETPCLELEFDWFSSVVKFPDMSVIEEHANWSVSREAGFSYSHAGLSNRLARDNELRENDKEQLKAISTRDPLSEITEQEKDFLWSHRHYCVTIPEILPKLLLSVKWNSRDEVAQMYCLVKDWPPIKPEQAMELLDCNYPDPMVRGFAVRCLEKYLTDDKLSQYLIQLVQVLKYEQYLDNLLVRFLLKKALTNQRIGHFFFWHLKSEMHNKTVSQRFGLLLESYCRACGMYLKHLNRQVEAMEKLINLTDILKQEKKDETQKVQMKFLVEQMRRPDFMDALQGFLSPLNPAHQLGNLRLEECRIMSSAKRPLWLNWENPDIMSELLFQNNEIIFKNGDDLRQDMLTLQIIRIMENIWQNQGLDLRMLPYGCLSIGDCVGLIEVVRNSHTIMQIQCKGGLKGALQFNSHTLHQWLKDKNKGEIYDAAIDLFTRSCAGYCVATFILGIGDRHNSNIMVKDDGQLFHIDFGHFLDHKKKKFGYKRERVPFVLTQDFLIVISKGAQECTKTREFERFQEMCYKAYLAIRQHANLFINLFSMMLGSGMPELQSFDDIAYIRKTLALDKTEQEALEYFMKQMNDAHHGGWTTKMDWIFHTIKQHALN

MAPK14 (human), sequence (Q16539 whole entry, looked up): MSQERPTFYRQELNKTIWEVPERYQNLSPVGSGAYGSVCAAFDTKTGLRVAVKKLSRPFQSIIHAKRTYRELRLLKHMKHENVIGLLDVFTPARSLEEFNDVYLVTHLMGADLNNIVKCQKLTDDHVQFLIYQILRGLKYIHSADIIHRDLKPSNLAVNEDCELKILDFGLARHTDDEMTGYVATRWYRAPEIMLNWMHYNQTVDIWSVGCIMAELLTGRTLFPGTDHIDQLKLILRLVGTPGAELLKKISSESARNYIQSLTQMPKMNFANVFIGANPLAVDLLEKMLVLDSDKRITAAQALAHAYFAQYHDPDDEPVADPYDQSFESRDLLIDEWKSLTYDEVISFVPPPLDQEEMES
PIK3CG (human), sequence (P48736 whole entry, looked up): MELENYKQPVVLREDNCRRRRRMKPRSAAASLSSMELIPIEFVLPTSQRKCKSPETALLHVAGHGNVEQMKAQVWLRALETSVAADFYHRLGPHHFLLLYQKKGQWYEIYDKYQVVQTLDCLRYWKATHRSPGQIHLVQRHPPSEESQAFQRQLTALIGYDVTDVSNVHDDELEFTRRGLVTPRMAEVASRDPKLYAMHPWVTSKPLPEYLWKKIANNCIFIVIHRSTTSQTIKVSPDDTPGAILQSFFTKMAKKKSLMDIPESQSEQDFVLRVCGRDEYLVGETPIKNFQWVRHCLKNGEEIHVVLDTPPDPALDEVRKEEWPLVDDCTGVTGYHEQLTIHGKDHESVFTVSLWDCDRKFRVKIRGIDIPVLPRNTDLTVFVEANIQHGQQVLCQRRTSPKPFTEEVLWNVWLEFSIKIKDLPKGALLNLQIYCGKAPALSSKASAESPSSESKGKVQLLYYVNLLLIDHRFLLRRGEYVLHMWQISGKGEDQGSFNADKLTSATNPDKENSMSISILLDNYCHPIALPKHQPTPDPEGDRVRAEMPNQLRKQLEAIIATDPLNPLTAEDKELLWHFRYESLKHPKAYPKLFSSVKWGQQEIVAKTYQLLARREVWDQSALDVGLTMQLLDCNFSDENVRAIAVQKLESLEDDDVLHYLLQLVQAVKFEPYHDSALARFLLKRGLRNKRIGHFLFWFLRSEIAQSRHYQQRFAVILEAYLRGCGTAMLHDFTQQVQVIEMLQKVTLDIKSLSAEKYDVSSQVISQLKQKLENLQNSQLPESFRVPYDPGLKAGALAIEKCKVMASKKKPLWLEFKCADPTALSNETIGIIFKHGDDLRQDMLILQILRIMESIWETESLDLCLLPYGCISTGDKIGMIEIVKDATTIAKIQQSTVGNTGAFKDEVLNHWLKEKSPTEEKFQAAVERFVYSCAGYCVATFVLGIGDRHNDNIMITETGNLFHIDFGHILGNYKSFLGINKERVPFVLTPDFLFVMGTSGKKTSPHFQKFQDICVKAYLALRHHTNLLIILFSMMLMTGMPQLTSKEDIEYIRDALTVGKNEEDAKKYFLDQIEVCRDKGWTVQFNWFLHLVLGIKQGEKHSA

SMILES | IC50 (CDK2 (human)) [µM] | IC50 (MAPK14 (human)) [µM] | IC50 (PIK3CG (human)) [µM] | IC50 (PIK3CA (human)) [µM]
COc1cc2c(cc1OCC1CCCCN1C)ncc1c3ccc(C#N)cc3[nH]c21 (stereo not drawn) | 1.1 | > 50 |  | 
COc1cc2c(cc1OCCCN1CCN(C)CC1)ncc1c3ccc(C#N)cc3[nH]c21 | 0.479 | > 47 |  | 
COc1cc2c(cc1OC1CCN(C)CC1)ncc1c3ccc(C#N)cc3[nH]c21 | 5.7 | 6.82 |  | 

Further lines, results first:

IC50 (CDK2 (human)) [µM] | IC50 (MAPK14 (human)) [µM] | IC50 (PIK3CG (human)) [µM] | IC50 (PIK3CA (human)) [µM] | SMILES
4.35 | > 36.2 | > 7.25 | > 7.25 | COc1cc2c(cc1OCCCN(C)C)ncc1c3ccc(C#N)cc3[nH]c21
0.599 | > 88.8 | 3.4 | 1.7 | COc1cc2ncc3c4ccc(C#N)cc4[nH]c3c2cc1OC
1.21 | > 45.6 |  |  | COCCOc1cc2ncc3c4ccc(C#N)cc4[nH]c3c2cc1OC
1.01 | > 49.4 |  |  | COc1cc2c(cc1OCCN(C)C)ncc1c3ccc(C#N)cc3[nH]c21
